Consider 3 compounds from PMC11969438 (Inorganic Chemistry Frontiers, 2025).

Series [1] deals with NF-κB pathway (STING-dependent). Briefly: NF-κB-inducible SEAP reporter in THP1-Dual reporter cell model. The class given is cell-based, human. As to conditions: for NF-κB %EMAX of MSA-2: maximal response relative to MSA-2; for EC50: 24 h exposure, normalized to cell viability, oxaliplatin in combinations 5 μM. An excerpt:
(§1) The THP1-Dual™ reporter cell model for simultaneously monitoring the activity of the IRF and NF-κB pathway contains an IRF-inducible luciferase reporter under the control of an ISG54 minimal promoter in conjunction with five interferon (IFN)-stimulated response elements, and an induced SEAP driven by an IFN-β minimal promoter fused to five copies of the NF-κB consensus transcriptional response element and three copies of the c-Rel binding site. The luciferase and SEAP reporter are measurable in the cell culture supernatant using QUANTI-Luc™ 4 Lucia/Gaussia (InvivoGen) and QUANTI-Blue™ (InvivoGen) solution, respectively. Cells were seeded at 1 × 10^5 cells per well in 96-well plates in RPMI-1640 medium, supplemented with 10% FCS, L-glutamine and Pen-Strep. After 2 h of recovery, the compounds were applied at the concentrations indicated in triplicate. The cell culture supernatant (SN) was collected after 24 h of drug incubation and secreted luciferase and SEAP reporter levels were measured according to the manufacturer's recommendations. In brief, for the detection of luciferase, 20 μL of SN were transferred into 96-well white opaque plates, and 30 μL of QUANTI-Luc™ reagent were added per well using an injector module in a multimode microplate reader (Tecan Spark, Zurich, Switzerland). Luminescence was recorded at a reading time of 0.1 second. For the detection of SEAP, 10 μL of SN were transferred to 96-well plates and 90 μL of QUANTI-Blue™ were added per well. Absorbance was measured at 620 nm. Half-maximal effective concentrations (EC50 values) were derived via interpolation from dose–response curves, modeled with the four-parameter logistic (4PL) nonlinear regression model in GraphPad Prism. For comparison, the maximal response rate of the prodrug was depicted in the percent of the maximal response rate achieved by SR-717 or MSA-2 (%EMAX) at the respective concentrations tested. Activatability, tested in co-incubation experiments with AA (50 μM), was expressed as the area under the curve (AUC) ratio of +AA vs. −AA-treated cells. The STING-dependency of the reporter induction was tested by co-administration of the STING inhibitor H-151 (10 μM), added to the cell culture medium 2 h before applying the investigated compounds. In addition to monitoring secreted reporter levels, the cell viability of the reporter cells was determined after 24 h of drug treatment by an MTT-based cell viability assay.

Series [2] relates to IRF pathway (STING-dependent). Description: IRF-inducible luciferase reporter in THP1-Dual reporter cell model. Type of series: cell-based, human. As to conditions: for IRF %EMAX of MSA-2: maximal response relative to MSA-2, highest tested dose 100 μM; for EC50: 24 h exposure, normalized to cell viability, oxaliplatin in combinations 5 μM.
Source text: as §1

The subject of series [3] is HCT116/OxR cells. Briefly: MTT-based cell viability assay, 72 h. Also noted: species or system human. Here is the method:
(§2) Cell models were seeded (2–2.5 × 10^3 cells per well) in 96-well plates. After 24 h of recovery, the compounds were applied at the concentrations indicated in triplicate. Cell viability was determined after 72 h of continuous drug incubation using an MTT-based cell viability assay (EZ4U, Biomedica, Vienna, Austria) according to the manufacturer's recommendations. Absorbance was measured at 450 nm (vs. 620 nm as reference) using a multimode microplate reader (Tecan Spark, Zurich, Switzerland). Half-maximal inhibitory concentrations (IC50 values) were derived via interpolation from dose–response curves, modeled with the four-parameter logistic (4PL) nonlinear regression model in GraphPad Prism (La Jolla, CA, USA) from at least three independent experiments.

Series [4] is described as follows: Hydrolytic stability in phosphate buffer, UHPLC. Type of series: physicochemical. As to conditions: 1 mM, 150 mM PB pH 7.4, 20 °C, over 24 h. Here is the method: PB (150 mM, pH 7.4) containing 1 mM platinum compound was incubated at 20 °C, with and without the addition of 10 eq. of AA. The reaction was monitored using a Thermo Scientific Dionex UltiMate 3000 UHPLC system with a Waters Acquity UPLC BEH C18 1.7 μm 3.0 × 50 mm column. Milli-Q water containing 0.1% formic acid and acetonitrile containing 0.1% formic acid were used as eluents. A gradient of 5–95% over 5 min was used with a flow of 0.6 mL min^−1. To evaluate the current state of the reaction, the peak area of the parental complex was used.

Series [5] concerns THP1-Dual cells. Description: Cytokine and chemokine secretion in cell culture supernatant, Luminex. Type of series: cell-based, human. The settings on record: 24 h. Here is the method:
Quantification of secreted protein targets in either cell culture SN or in plasma of treated animals was performed using a ProcartaPlex (96-well) multiplex assay panel (Thermo Fisher Scientific) in the xMAP detection platform (Luminex). For the in vitro detection of secreted proteins, THP1-Dual cells were seeded at 1 × 10^5 cells per well in 96-well plates in RPMI-1640 medium, supplemented with 10% FCS, L-glutamine and Pen-Strep. After 24 h of recovery, the compounds were applied at the concentrations indicated in triplicate.
After 24 h of drug incubation, the cell culture SN of technical triplicate was collected, pooled, centrifuged (400g, 10 min, 4 °C), transferred into a fresh tube, and stored at −20 °C.
Next, the ProcartaPlex (96-well) multiplex assay panel was performed according to the manufacturer's recommendations. In brief, the capture bead mix was incubated with test samples (undiluted SN or mouse plasma) or standard mix overnight. The SN of three independent experiments or the plasma of four animals per treatment group was loaded onto the multiplex assay plate. Next, biotinylated detection antibody mix and Streptavidin-PE were added to the plate. Following the recommended washing steps, the samples were incubated in a reading buffer and were measured using a Luminex xMAP platform (Bio-Plex MAGPIX Multiplex Reader; Bio-Rad Laboratories) and analyzed using xPONENT software.

The test system of series [6] is CT-26 tumors. Briefly: Anticancer efficacy in vivo, syngeneic colorectal carcinoma. Also noted: species or system BALB/c mice. Here is the method: Tumor size was determined daily via manual caliper measurement. […] Animals were euthanized via cervical dislocation.
The subject of series [7] is THP1-Dual, HCT116, HCT116/OxR and CT-26 cells. Description: MTT-based cell viability assay, 72 h, statements over all investigated cell lines. Also noted: species or system human and murine. Here is the method: as §2

“Also recorded” adds a separate entry of the source. Some results are limits rather than exact numbers.

For the compound `COCCOCCOCCOCCNC(=O)[O][Pt-2]12([O]C(=O)CCC(=O)c3cc4cc(OC)c(OC)cc4s3)([NH2+][C@@H]3CCCC[C@H]3[NH2+]1)[O]C(=O)C(=O)[O]2` [Ox-MSA-PEG-Ca, (OC-6-34)-[(1R,2R)-1,2-cyclohexanediamino]-oxalato-[4-(5,6-dimethoxybenzo[b]thiophen-2-yl)-4-oxobutylcarboxylato]-[3,6,9,12-tetraoxatridecan-1-amino]platinum(IV)], in series [1] (24 h), the “NF-κB EC50 ratio fold MSA-2” value turned out to be 3.1 fold and the “NF-κB %EMAX of MSA-2” value worked out at 24%. For the same compound, in series [1], the EC50 (usually the concentration needed to bring the measured effect to its halfway point) was found to be 55.4 µM. In addition, in series [2] (24 h), the “IRF EC50 ratio fold MSA-2” value is reported as 6.3 fold and the “IRF %EMAX of MSA-2” value amounted to 68%. In addition, in series [2], the EC50 stood at 57.8 µM. The “resistance factor (IC50 ratio HCT116/OxR vs parental HCT116)” value in series [3] turned out to be 2.7 fold. Moreover, in series [4], the “stability in PB” value is given as “very well comparable to Ox-MSA-PEG-Es”. In addition, in series [5] (prodrug 100 μM, MSA-2 25 μM), the “secretion of cytokines and chemokines” value was “induced distinct secretion of cytokines and chemokines”. Further, the tumor volume entry in series [6] (peritumoral (p.t.) application, identical doses as i.v.) was “robust and significant decrease in the tumor volume; also recorded: distinct anticancer activity”. Further, the “IC50 ratio prodrug vs free oxaliplatin, maximum over cell models” value in series [7] was ≤ 40 fold.
Turning to `O=C1[O][Pt]2([NH][C@@H]3CCCC[C@H]3[NH]2)[O]C1=O` [oxaliplatin, reference compound], in series [1] (24 h), the “activation of NF-κB signaling pathway” value is “did not induce observable activation”. Further, the “activation of IRF signaling pathway” value in series [2] (24 h) is recorded as “did not induce observable activation”. The concentration for half-maximal inhibition (IC50) (as a rule, the concentration needed to halve the response being measured) in series [3] (without AA) is 27.5 µM. Further, the “TNF-α and IFN-γ secretion” value in series [5] (oxaliplatin 5 μM) was “activated predominantly by oxaliplatin”. For the same compound, in series [6] (i.v. twice a week for two weeks, equimolar to 9 mg kg^−1 oxaliplatin), the tumor growth entry is “clearly reduced tumor growth”.
`COCCOCCOCCOCCC(=O)[O][Pt-2]12([O]C(=O)CCC(=O)c3cc4cc(OC)c(OC)cc4s3)([NH2+][C@@H]3CCCC[C@H]3[NH2+]1)[O]C(=O)C(=O)[O]2` [Ox-MSA-PEG-Es, (OC-6-44)-[(1R,2R)-1,2-cyclohexanediamino]-oxalato-[4-(5,6-dimethoxybenzo[b]thiophen-2-yl)-4-oxobutylcarboxylato]-[2,5,8,11-tetraoxatetradecanoato]platinum(IV)]: in series [1] (24 h), the “NF-κB EC50 ratio fold MSA-2” value is given as > 5.7 fold and the “NF-κB %EMAX of MSA-2” value came out at 15%. In addition, the EC50 in series [1] was > 100 µM. For the same compound, in series [2] (24 h), the “IRF EC50 ratio fold MSA-2” value came to 8.6 fold and the “IRF %EMAX of MSA-2” value was found to be 24%. Moreover, the concentration for a half-maximal effect (EC50) in series [2] came to 78.8 µM. Moreover, the “impact of reducing conditions on IRF-induced reporter signal (AUC ratio +AA/−AA)” value in series [2] (AA 50 μM) was “significantly enhanced”. Besides, in series [3], the “resistance factor (IC50 ratio HCT116/OxR vs parental HCT116)” value is > 3.1 fold. The “stability in PB” value in series [4] is recorded as “stable”. For the same compound, in series [7], the “IC50 ratio prodrug vs free oxaliplatin, maximum over cell models” value was ≤ 40 fold.
